Source: paper PMC8692498, “Synthesis and multifaceted pharmacological activity of novel quinazoline NHE-1 inhibitors” (Scientific Reports, 2021)
Entries after “also recorded” stand apart in the source; their conditions may differ.

Legend:
[1] = molecular target: T1, NHE-1 (Oryctolagus cuniculus, UniProt P23791); test: NHE-1 inhibition assay on rabbit platelets (platelet shape change after acidification with sodium propionate, laser aggregometer); format: cell-based
T1 construct: endogenous in cells; host or cells: rabbit platelets in platelet-rich plasma (male rabbits)
T1 sequence (P23791 whole entry): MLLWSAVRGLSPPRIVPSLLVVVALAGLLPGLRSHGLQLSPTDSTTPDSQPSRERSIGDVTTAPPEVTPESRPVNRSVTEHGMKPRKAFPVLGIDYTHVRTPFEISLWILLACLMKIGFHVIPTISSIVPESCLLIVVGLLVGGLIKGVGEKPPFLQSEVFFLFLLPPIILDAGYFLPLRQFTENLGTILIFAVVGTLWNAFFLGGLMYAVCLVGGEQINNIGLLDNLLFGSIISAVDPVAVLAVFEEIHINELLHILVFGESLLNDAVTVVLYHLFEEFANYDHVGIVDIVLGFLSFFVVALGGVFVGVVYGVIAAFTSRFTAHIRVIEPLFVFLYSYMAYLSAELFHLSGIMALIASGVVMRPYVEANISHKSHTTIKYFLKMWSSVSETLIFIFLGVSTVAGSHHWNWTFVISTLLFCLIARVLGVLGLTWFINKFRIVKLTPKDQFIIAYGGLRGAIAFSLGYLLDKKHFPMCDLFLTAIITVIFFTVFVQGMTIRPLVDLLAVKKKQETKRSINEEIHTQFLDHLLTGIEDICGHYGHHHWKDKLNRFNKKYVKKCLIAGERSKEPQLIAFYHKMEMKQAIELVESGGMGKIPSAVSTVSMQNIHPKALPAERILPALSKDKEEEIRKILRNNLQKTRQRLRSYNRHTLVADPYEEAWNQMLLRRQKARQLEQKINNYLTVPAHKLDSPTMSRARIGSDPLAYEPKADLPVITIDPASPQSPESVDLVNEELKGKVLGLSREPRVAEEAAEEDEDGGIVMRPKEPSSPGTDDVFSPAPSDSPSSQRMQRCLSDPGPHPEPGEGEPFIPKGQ

[2] = tested on: intraocular pressure; test: Intraocular pressure studies in outbred rats (TonoVet); format: in vivo
Protocol: The experiments were carried out on 75 adult outbred rats of both sexes, which were kept in standard cages at a temperature of 25 °C and a standard light regime. Animals were randomly assigned to the control and experimental groups (n = 5). Before the start of the experiment, the rats had free access to food and water. Intraocular pressure (IOP) was measured with a TonoVet device (Finland)[44] which measures IOP with a short touch of a small disposable tip in the center of the cornea, no corneal anesthesia is required. The study was carried out according to the published method. One drop (50 μl) of a test 0.4% solution of the compound was instilled into the right eye, and deionized water was added to the left eye. IOP was measured in both eyes. The left eye, in turn, serves to assess the possible systemic exposure of the test compounds. […] IOP-lowering activity was assessed as the maximum decrease in IOP from the initial values. At 9:00 AM, baseline IOP was measured in animals of all groups. Experiments were run in 5 independent replicates.

[3] = tested on: primary peritoneal macrophages of C57BL/6J mice; test: Interleukin-6 secretion (ELISA) from LPS-stimulated peritoneal macrophages; format: cell-based
Protocol: (§1) Peritoneal macrophages (PM) were isolated from the peritoneal exudate of 30 male C57bl/6j mice. To accumulate PM, 1 ml of 3% peptone solution was injected intraperitoneally. After 3 days the mice were euthanized by cervical dislocation. Cells of peritoneal exudate were obtained by aseptically washing the abdominal cavity with 5 ml of sterile Hanks’s solution (+ 4-6 °C) without calcium and magnesium ions. The total number and viability of cells were assessed in a Goryaev counting chamber (Russia) with a 0.4% trypan blue staining (Sigma-Aldrich, USA). The cell concentration was adjusted to 1.0×10^6 cells/ml in DMEM (Gibco) supplemented with 2 mM L-glutamine (Gibco), 10% heat-inactivated fetal bovine serum (BioClot, Germany), 100 U/ml penicillin and […] streptomycin (Gibco) and plated 200 μl/well in 96-well transparent plates (SPL Life Sciences Co., Ltd., Korea). It was left for 2 h at 37°C in a humidified atmosphere with 5% CO2, after which the wells were washed to remove non-adherent cells. After 24 hours of incubation, 20 μl of the supernatant was removed and 20 μl of solutions of test compounds were added 30 min before E. coli O127:B8 LPS (100 ng/ml final concentration). Experiments were run in 3 independent replicates.
(§2) Cell supernatant was collected and centrifuged at 1000 g for 20 min in a 2-16PK Sigma centrifuge (Germany). The concentration of IL-6 was determined by ELISA using a commercial kit (Cloud-clone ELISA kit) with a microplate reader Infinite M200 PRO (Tecan, Austria).

[4] = tested on: IL-6 secretion; test: as above; format: cell-based, mice; conditions: male, C57BL/6J, mouse, primary peritoneal macrophages stimulated with LPS; CC50 versus IC50 of IL-6 secretion; read-out: selectivity of IL-6 inhibition over cytotoxicity
Protocol: as §1, §2

[5] = tested on: ICR mice; test: Tail suspension test (antidepressant activity); format: in vivo; conditions: intragastrically 30 min before test, dose equimolar to 2.6 mg/kg amiloride
Protocol: The experiment was carried out on 36 male ICR mice weighing 22-25 g, divided into groups of 6 animals each under room lighting (300 lux). […] In experiments, test substances were administered intragastrically 30 min before the start of the test. Experimental groups received test compounds in an equimolar dose to the comparison drug amiloride. Animals of the remaining groups were treated with 2.6 mg/kg amiloride, 10 mg/kg amitriptyline, or 8 mg/kg imipramine. Distilled water was administered to the control group. The time of immobilization of the animals was recorded.

[6] = tested on: primary peritoneal macrophages of C57BL/6J mice; test: Cytotoxicity study (LDH activity in the medium) in peritoneal macrophages; format: cell-based; conditions: 100 μM, peritoneal macrophages
Protocol: as §1
(§3) The activity of lactate dehydrogenase (LDH) in a cell culture medium served as a marker of membrane permeability and cell death. Aliquotes of supernatants were taken after 24 h of inoculation with test compounds, mixed with 250 μl of […] NADH solution in 54 mM phosphate buffered saline (pH 7.5). Then, 25 μl of a 6.48 mM pyruvate solution was added to the mixture. The optical density was followed at a wavelength of 340 nm for 20 min. Conversion of optical density into cell viability was carried out according to a standard curve (DMSO-treated cells as 100% and 0.01% Triton X-100-treated cells as 0% viable cells).

[7] = as above; format: cell-based; conditions: male, C57BL/6J, mouse, primary peritoneal macrophages; murine peritoneal macrophages, LDH
Protocol: as §1, §3

[8] = molecular target: T1, NHE-1; test: NHE-1 inhibition assay on rabbit platelets (platelet shape change after acidification with sodium propionate, laser aggregometer); format: cell-based; remark: listed apart in the source
Protocol: Evaluation of NHE-1 inhibition was carried out on rabbit platelets by the known method[39],[40]. The experiments were carried out on 15 male rabbits weighing 3.0-4.0 kg. Platelet-rich plasma (PRP) was obtained by centrifuging blood with 3.8% sodium citrate (1:10) at 1000 rpm for 12 min (Multi centrifuge CM 6M, Latvia). Platelet shapeshifting due to acidification was followed with a laser aggregometer BIOLA-220 LA (Russia). Test compounds (10 μl, 10 nM final concentration) were added to 200 μl of PRP 5 min in a cuvette before the addition of sodium propionate solution, incubated with constant stirring using a magnetic stirrer (800 rpm, 37 °C). To control samples for NHE-1 activation, a buffer solution containing sodium propionate was added to 200 μL of PRP (600 μL, 135 mM sodium propionate, 20 mM HEPES, 1 mM CaCI2, 1 mM MgCI2, 10 mM glucose; pH 6.7). The change in light transmission at pH 7.4, 37 °C was monitored in a Krebs solution (600 μL, 120 mM NaCl, 4.8 mM KCl, 1.2 mM KH2PO4, 2.5 mM MgSO4, 25 mM NaHCO3, 2.6 mM CaCl2, 5.4 mM glucose; pH 7.4). Test compounds were added to a final concentration of 10 nM to the cuvette into 200 μl of PRP 5 min before adding the sodium propionate solution, incubated with constant stirring using a magnetic stirrer (800 rpm, 37 °C). NHE-1 inhibitors zoniporide, rimeporide, amiloride were used as reference drugs. Assays were run in 6 independent series.

## Cn1c(=O)n(Cc2nnc(N)[nH]2)c(=O)c2ccccc21 [Compound 3e, 3-[(5-Amino-4H-1,2,4-triazol-3-yl)methyl]-1-methylquinazoline-2,4(1H,3H)-dione]
[1]
  IC50: 0.0058 µM
[2]; compared with zoniporide and timolol
  IOP-lowering effect size: negligible
[2]; one drop (50 μl) of 0.4% solution instilled
  IOP-lowering activity: statistically significant activity
[3]; LPS-stimulated macrophages, screening (Fig. 4)
  secretion of interleukin 6: suppressed
[3]; Mus musculus, Peritoneal macrophage, LPS-stimulated murine macrophages, read-out: IC50 of IL-6 synthesis/secretion
  IC50: 32.1 µM
[4]
  selectivity ratio: 4 to 6
[5]
  antidepressant activity: antidepressant activity similar to amiloride; also recorded: antidepressant activity comparable with amiloride
[6]
  effect on cell viability: absence of a statistically significant effect on cell viability
[7]
  CC50 at 24 h: 138 µM
[8]; 10 nM, rabbit platelet-rich plasma, decimal commas, read-out: NHE-1 inhibition at 10 nM, m ± SD, n = 6 (%)
  inhibition at 0.01 µM: 57.8%
[8]; compared with reference drugs
  NHE-1 inhibitory activity (in words): more potent and comparable to zoniporide
